These results are taken from ChEMBL document CHEMBL5244281, “Tackling multidrug-resistant Staphylococcus aureus by natural products and their analogues acting as NorA efflux pump inhibitors” (Bioorg Med Chem, 2023).

Converted amounts (≈) assume the structure as drawn. Bounds are passed on as bounds.

Experiment [1] deals with Staphylococcus aureus. Description: Antibacterial activity against Staphylococcus aureus RN4220 expressing MsrA efflux protein assessed as bacterial growth inhibition incubated for 24 hrs by resazurin based microdilution assay. It is filed as functional.
Experiment [2] deals with Staphylococcus aureus. Description: Antibacterial activity against Staphylococcus aureus IS-58 expressing TetK efflux protein assessed as bacterial growth inhibition incubated for 24 hrs by resazurin based microdilution assay. The experiment is classed as functional.
The test system of experiment [3] is Staphylococcus aureus. Description: Antibacterial activity against Staphylococcus aureus 1199B expressing NorA efflux protein assessed as bacterial growth inhibition incubated for 24 hrs by resazurin based microdilution assay. The experiment is classed as functional.
The test system of experiment [4] is Staphylococcus aureus. The experiment can be described thus: Antibacterial activity against wild type Staphylococcus aureus 1199 assessed as bacterial growth inhibition incubated for 24 hrs by resazurin based microdilution assay. The experiment is classed as functional.
For experiment [5], the system named is Staphylococcus aureus. Description: Antibacterial activity against norfloxacin resistant Staphylococcus aureus 1199B harboring NorA efflux pump assessed as bacterial growth inhibition incubated for 24 hrs by CLSI protocol based broth microdilution method. The experiment is classed as functional.
The target of experiment [6] is T1, Quinolone resistance protein NorA (Staphylococcus aureus) (UniProt P0A0J7).
T1 sequence (whole entry): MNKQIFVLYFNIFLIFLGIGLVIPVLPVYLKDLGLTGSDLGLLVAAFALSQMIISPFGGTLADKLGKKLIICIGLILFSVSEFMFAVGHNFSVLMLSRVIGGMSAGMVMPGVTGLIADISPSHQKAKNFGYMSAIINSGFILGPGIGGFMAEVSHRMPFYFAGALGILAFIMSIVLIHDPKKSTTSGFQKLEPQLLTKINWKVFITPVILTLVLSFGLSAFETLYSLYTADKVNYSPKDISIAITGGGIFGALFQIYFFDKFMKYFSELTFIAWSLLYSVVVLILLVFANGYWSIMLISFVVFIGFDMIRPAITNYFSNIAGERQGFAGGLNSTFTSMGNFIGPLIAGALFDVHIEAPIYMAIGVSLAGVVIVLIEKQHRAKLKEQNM
Description: Modulation of norfloxacin-induced inhibition of NorA efflux pump in Staphylococcus aureus 1199B overexpressing NorA efflux pump assessed as reduction in norfloxacin MIC at 1/4 times of MIC by resazurin based assay.

Experiment [7] deals with Staphylococcus haemolyticus. Description: Antibacterial activity against Staphylococcus haemolyticus assessed as bacterial growth inhibition by microdilution assay. The experiment is classed as functional.
Experiment [8] deals with Staphylococcus haemolyticus. Description: Antibacterial activity against Staphylococcus haemolyticus grown in blood assessed as bacterial growth inhibition by microdilution assay. The experiment is classed as functional.
In experiment [9] the target is UDP-N-acetylmuramoyl-L-alanyl-D-glutamate--2,6-diaminopimelate ligase (Mycobacterium tuberculosis (strain ATCC 25618 / H37Rv), UniProt P9WJL3). The experiment can be described thus: Inhibition of MurE ligase activity in Mycobacterium tuberculosis assessed as release of inorganic phosphate by hydrolysis of ATP using UDP-MurNAc-l-Ala-d-Glu as substrate in presence of ATP incubated for 30 mins by absorbance assay.

Experiment [10] concerns MCF7. The experiment can be described thus: Cytotoxicity against human MCF7 cells assessed as reduction in cell viability by sulforhodamine B assay. It is filed as functional, cell-based.
The test system of experiment [11] is A549. The experiment can be described thus: Cytotoxicity against human A549 cells assessed as reduction in cell viability by sulforhodamine B assay. The experiment is classed as functional, cell-based.
Experiment [12] deals with WI-38. Description: Cytotoxicity against human WI-38 cells assessed as reduction in cell viability by sulforhodamine B assay. The experiment is classed as functional, cell-based.
For experiment [13], the system named is Staphylococcus aureus. The experiment can be described thus: Antimicrobial activity against Staphylococcus aureus assessed as bacterial growth inhibition incubated for 18 to 24 hrs by broth microdilution method. It is filed as functional. The following applies: time 18-24 hrs.
Experiment [14] relates to Bacillus subtilis. The experiment can be described thus: Antimicrobial activity against Bacillus subtilis assessed as bacterial growth inhibition incubated for 18 to 24 hrs by broth microdilution method. The experiment is classed as functional. The following applies: time 18-24 hrs.
For experiment [15], the system named is Enterococcus faecalis. Description: Antimicrobial activity against Enterococcus faecalis assessed as bacterial growth inhibition incubated for 18 to 24 hrs by broth microdilution method. It is filed as functional. The following applies: time 18-24 hrs.
In experiment [16] the test system is Escherichia coli. Description: Antimicrobial activity against Escherichia coli assessed as bacterial growth inhibition incubated for 18 to 24 hrs by broth microdilution method. The experiment is classed as functional. The following applies: time 18-24 hrs.
In experiment [17] the test system is Vibrio cholerae. Description: Antimicrobial activity against Vibrio cholerae assessed as bacterial growth inhibition incubated for 18 to 24 hrs by broth microdilution method. The experiment is classed as functional. Conditions: time 18-24 hrs.
The subject of experiment [18] is Klebsiella pneumoniae. Description: Antimicrobial activity against Klebsiella pneumoniae assessed as bacterial growth inhibition incubated for 18 to 24 hrs by broth microdilution method. Conditions: time 18-24 hrs. The experiment is classed as functional.
The subject of experiment [19] is Proteus vulgaris. The experiment can be described thus: Antimicrobial activity against Proteus vulgaris assessed as bacterial growth inhibition incubated for 18 to 24 hrs by broth microdilution method. It is filed as functional. The following applies: time 18-24 hrs.
In experiment [20] the test system is Proteus mirabilis. Description: Antimicrobial activity against Proteus mirabilis assessed as bacterial growth inhibition incubated for 18 to 24 hrs by broth microdilution method. The following applies: time 18-24 hrs. It is filed as functional.
Experiment [21] deals with Shigella dysenteriae. Description: Antimicrobial activity against Shigella dysenteriae assessed as bacterial growth inhibition incubated for 18 to 24 hrs by broth microdilution method. The experiment is classed as functional. Conditions: time 18-24 hrs.
Experiment [22] has as its system Pseudomonas aeruginosa. Description: Antimicrobial activity against Pseudomonas aeruginosa assessed as bacterial growth inhibition incubated for 18 to 24 hrs by broth microdilution method. It is filed as functional. Conditions: time 18-24 hrs.
Experiment [23] deals with Staphylococcus aureus. The experiment can be described thus: Antibacterial activity against Staphylococcus aureus IS-58 overexpressing TetK pump assessed as bacterial growth inhibition incubated for 24 hrs by resazurin based broth dilution method. It is filed as functional.
Experiment [24] has as its system Staphylococcus aureus. Description: Antibacterial activity against methicillin-resistant Staphylococcus aureus RN4220/pUL5054 overexpressing MsrA efflux pump assessed as bacterial growth inhibition incubated for 24 hrs by resazurin based broth dilution method. It is filed as functional.
Experiment [25] relates to Staphylococcus aureus. Description: Antibacterial activity against methicillin-resistant Staphylococcus aureus 1199B overexpressing NorA efflux pump assessed as bacterial growth inhibition incubated for 24 hrs by resazurin based broth dilution method. It is filed as functional.
Experiment [26] concerns Staphylococcus aureus. The experiment can be described thus: Antibacterial activity against methicillin-resistant Staphylococcus aureus 1199 assessed as bacterial growth inhibition incubated for 24 hrs by resazurin based broth dilution method. It is filed as functional.
The test system of experiment [27] is Staphylococcus aureus. Description: Potentiation of erythromycin-induced inhibition of MsrA pump in Staphylococcus aureus RN4220/pUL5054 assessed as reduction in erythromycin MIC incubated for 24 hrs by Resazurin based assay (RVB= 645.08 ug/ml).
Experiment [28] deals with Staphylococcus aureus. Conditions: IS-58, time 24.0 hrs.
In experiment [29] the target is T1, Quinolone resistance protein NorA (Staphylococcus aureus). The following applies: 1199B, time 24.0 hrs.
In experiment [30] the test system is Staphylococcus aureus. The following applies: IS-58, time 24.0 hrs. This is another data set of the same source.
The target of experiment [31] is T1, Quinolone resistance protein NorA (Staphylococcus aureus). Conditions: 1199B, time 24.0 hrs. This is another data set of the same source.
Experiment [32] concerns Staphylococcus aureus. Description: Synergistic antibacterial activity against Staphylococcus aureus 1199B overexpressing NorA efflux pump assessed as fractional inhibitory concentration index in presence of norfloxacin by chequer board assay. It is filed as functional.
Experiment [33] relates to Staphylococcus aureus. The experiment can be described thus: Antibacterial activity against wild type Staphylococcus aureus 1199 assessed as bacterial growth inhibition incubated for 24 hrs by microdilution method. It is filed as functional.
Experiment [34] relates to Staphylococcus aureus. The experiment can be described thus: Antibacterial activity against Staphylococcus aureus 1199B overexpressing NorA efflux protein assessed as bacterial growth inhibition incubated for 24 hrs by microdilution method. The experiment is classed as functional.

In the case of `CC1=CC(=O)c2ccccc2C1=O` [MENADIONE], the MIC in [1], in experiment [2], in [3] and in experiment [4] was 64 mg/L (≈ 372 µM) in each case.

For the molecule `O=c1c(O)c(-c2cc(O)c(O)c(O)c2)oc2cc(O)cc(O)c12` [MYRICETIN], the MIC was 256 mg/L (≈ 804 µM) in experiment [5] and 256 mg/L in experiment [6].

As to `CC[C@H](C)C(=O)c1c(O)cc(O)cc1OC/C=C(\C)CCC=C(C)C` [OLYMPICIN A], the MIC in [7] was ≥ 16 mg/L; in [8], > 32 mg/L. In addition, the 50% inhibitory concentration (IC50) came out at 75 µM in experiment [9], 12.5 µM in experiment [10], 10.5 µM in experiment [11] and 8.9 µM in experiment [12].

For the molecule `COc1cc(O)c2c(c1)O[C@H](c1ccccc1)CC2=O` [PINOSTROBIN], the MIC in experiment [13] was 64 mg/L (≈ 237 µM); in [14] it was 12 mg/L (≈ 44.4 µM); in experiment [15], 12 mg/L (≈ 44.4 µM); in experiment [16], 12 mg/L (≈ 44.4 µM); in [17] it was 24 mg/L (≈ 88.8 µM); in [18], 18 mg/L (≈ 66.6 µM). Further, the MIC in experiment [19] worked out at 18 mg/L (≈ 66.6 µM); in [20], 32 mg/L (≈ 118 µM); in experiment [21], 12 mg/L (≈ 44.4 µM); in experiment [22], 32 mg/L (≈ 118 µM).

Regarding `O=c1c(O)c(-c2ccc(O)c(O)c2)oc2cc(O)cc(O)c12` [QUERCETIN], the MIC is 512 mg/L (≈ 1690 µM) in experiment [23]; ≥ 1020 mg/L in experiment [24]; ≥ 1020 mg/L in [25]; ≥ 1020 mg/L in experiment [26]; 512 mg/L in [27]; 128 mg/L (≈ 424 µM) in experiment [28]. Also, the figures for the MIC in [29], in [30] and in [31] were 128 mg/L (≈ 424 µM), 12.7 mg/L (≈ 42 µM) and 12.7 mg/L (≈ 42 µM), respectively.

`C=C(C)[C@H](CC=C(C)C)Cc1c(O)cc(O)c2c1O[C@H](c1ccc(O)cc1O)CC2=O` [SOPHORAFLAVANONE G]: in experiment [32], the “fractional inhibitory concentration index (FICI)” value came out at 0.188.

`O=C(OC[C@H]1O[C@@H](OC(=O)c2cc(O)c(O)c(OC(=O)c3cc(O)c(O)c(O)c3)c2)[C@H](OC(=O)c2cc(O)c(O)c(OC(=O)c3cc(O)c(O)c(O)c3)c2)[C@@H](OC(=O)c2cc(O)c(O)c(OC(=O)c3cc(O)c(O)c(O)c3)c2)[C@@H]1OC(=O)c1cc(O)c(O)c(OC(=O)c2cc(O)c(O)c(O)c2)c1)c1cc(O)c(O)c(OC(=O)c2cc(O)c(O)c(O)c2)c1` [TANNIC ACID]: the MIC in experiment [33] and in experiment [34] was ≥ 1020 mg/L in each case.
